Measurements published in patent US10870638B2, “Pyridazinone compound or its salt, and herbicide containing it” (ISHIHARA SANGYO KAISHA, LTD., priority 2016, dated 2020).

How the values were obtained:
Experiment in all cases: Test Example 1: foliar treatment, growth inhibition rate on 14th day
Format in all cases: in vivo
Details in all cases: active ingredient amount 31 g/ha, 14th day after application, visual, 0 = non-treated, 100 = complete kill
rice (Oryza sativa L.) = test system: rice (Oryza sativa L.)
In short: (§1)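 Growth inhibition rates (%) come from visual observation on the 14th day following a single foliar application. Soybean was sprayed at the primary leaf stage, rice at 0.2–2.7 leaves, wild oat at 0.4–1.2, green foxtail at 0.5–3.2.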

[1] = test system: redroot pigweed (Amaranthus retroflexus L.)
In short: (§2)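 Visual 0–100% inhibition scoring (100 = complete kill) at 14 days after foliar treatment of soil-grown seedlings at species-specific leaf stages, with the compound sprayed as a wettable powder or emulsifiable concentrate dilution.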

[2] = test system: wild oat (Avena fatua L.)
In short: as §1

[3] = test system: green foxtail (Setaria viridis L.)
In short: as §1

[4] = test system: italian ryegrass (Lolium multiflorum Lam.)
In short: as §2

[5] = test system: crabgrass (Digitaria sanquinalis L.)
In short: as §2

[6] = test system: wheat (Triticum aestivum L.)
In short: as §2

corn (Zea mays L.) = test system: corn (Zea mays L.)
In short: as §2

[7] = test system: barnyardgrass (Echinochloa crus-qalli L.)
In short: as §2

[8] = test system: soybean (Glycine max Merr.)
In short: as §1

| SMILES | Growth inhibition rate (%) Rice (rice (Oryza sativa L.)) | Growth inhibition rate (%) Redroot pigweed [1] | Growth inhibition rate (%) Wild oat [2] | Growth inhibition rate (%) Green foxtail [3] | Growth inhibition rate (%) Italian ryegrass [4] | Growth inhibition rate (%) Crabgrass [5] | Growth inhibition rate (%) Wheat [6] | Growth inhibition rate (%) Corn (corn (Zea mays L.)) | Growth inhibition rate (%) Barnyardgrass [7] | Growth inhibition rate (%) Soybean [8] |
| --- | --- | --- | --- | --- | --- | --- | --- | --- | --- | --- |
| Cc1ccc(Oc2cnc3cc(Cl)ccc3n2)cc1-c1c(OC(=S)N(C)C)c(C)nn(C)c1=O [Compound 3-67] | 40% | 0% | 100% | 100% | 99% | 95% | 99% | 50% | 100% | 0% |
| CCS(=O)(=O)Oc1c(C)nn(C)c(=O)c1-c1cc(Oc2cnc3cc(Cl)ccc3n2)ccc1C [Compound 3-68] | 0% | 0% | 90% | 100% | 83% | 95% | 30% | 20% | 100% | 0% |
| Cc1ccc(Oc2cnc3cc(Cl)ccc3n2)cc1-c1c(OS(=O)(=O)C2CC2)c(C)nn(C)c1=O [Compound 3-70] | 0% | 0% | 60% | 98% | 40% | 88% | 0% | 30% | 98% | 10% |
| Cc1ccc(S(=O)(=O)Oc2c(C)nn(C)c(=O)c2-c2cc(Oc3cnc4cc(Cl)ccc4n3)ccc2C)cc1 [Compound 3-71] | 15% | 0% | 99% | 100% | 98% | 90% | 95% | 0% | 100% | 0% |
| C=CCOc1c(C)nn(C)c(=O)c1-c1cc(Oc2cnc3cc(Cl)ccc3n2)ccc1C [Compound 3-74] | 0% | 0% | 25% | 95% | 0% | 20% | 0% | 20% | 93% | 0% |
| COCCOCOc1c(C)nn(C)c(=O)c1-c1cc(Oc2cnc3cc(Cl)ccc3n2)ccc1C [Compound 3-75] | 0% | 0% | 98% | 99% | 98% | 95% | 95% | 10% | 99% | 0% |
| Cc1ccc(Oc2cnc3cc(Cl)ccc3n2)cc1-c1c(OC(C)OC(=O)OC2CCCCC2)c(C)nn(C)c1=O (stereo not shown) [Compound 3-76] | 0% | 0% | 0% | 93% | 10% | 30% | 0% | 0% | 93% | 0% |
